Source: PubChem BioAssay (NCI)
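A five-concentration, 48-hour dose response in 96-well plates underlies each endpoint, interpolated linearly between surrounding concentrations. GI50 is the concentration that inhibits growth by half. TGI marks complete inhibition of growth.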

Key:
Test in all cases: NCI tumour cell line growth inhibition, 48 h
[1] = system: A549 NSCLC
[2] = system: MALME-3M melanoma
[3] = system: SK-MEL-28 melanoma
[4] = system: SNB-19 CNS
[5] = system: RXF 393 renal
[6] = system: ACHN renal
[7] = system: U251 CNS
[8] = system: M14 melanoma
[9] = system: NCI-H226 lung
[10] = system: SN12C renal
[11] = system: HOP-92 NSCLC
[12] = system: SW-620 colon
[13] = system: HS 578T breast
[14] = system: BT-549 breast
[15] = system: SK-MEL-5 melanoma
[16] = system: HOP-62 NSCLC
[17] = system: UO-31 renal
[18] = system: OVCAR-8 ovarian
[19] = system: HCT-116 colon
[20] = system: DU-145 prostate
[21] = system: TK-10 renal
[22] = system: HT29 colon
[23] = system: SF-268 CNS
[24] = system: HL-60(TB) leukemia
[25] = system: KM12 colon
[26] = system: OVCAR-4 ovarian
[27] = system: EKVX NSCLC
[28] = system: A498 renal
[29] = system: MDA-MB-435
[30] = system: UACC-257 melanoma
[31] = system: OVCAR-3 ovarian
[32] = system: 786-0 renal
[33] = system: PC-3 prostate
[34] = system: NCI-H522 lung
[35] = system: HCT-15 colon
[36] = system: SF-539 CNS
[37] = system: MDA-MB-231 breast
[38] = system: SK-OV-3 ovarian
[39] = system: OVCAR-5 ovarian
[40] = system: MOLT-4 leukemia
[41] = system: LOX IMVI melanoma
[42] = system: MCF7 breast
[43] = system: IGROV1 ovarian
[44] = system: NCI/ADR-RES ovarian
[45] = system: CAKI-1 renal
[46] = system: SR leukemia
[47] = system: SNB-75 CNS
[48] = system: SF-295 CNS
[49] = system: SK-MEL-2 melanoma
[50] = system: UACC-62 melanoma
[51] = system: CCRF-CEM leukemia
[52] = system: RPMI-8226 leukemia
[53] = system: NCI-H460 lung
[54] = system: COLO 205 colon
[55] = system: K-562 leukemia
[56] = system: NCI-H23 lung

CC1(C)COC(c2ccc(CC(Cc3ccc(C4(C(C)(C)C)OCC(C)(C)CO4)cc3)C(=O)O)cc2)(C(C)(C)C)OC1
GI50 [1]: 2.06 µM
TGI [1]: > 100 µM
GI50 [2]: > 100 µM
TGI [2]: > 100 µM
GI50 [3]: > 100 µM
TGI [3]: > 100 µM
GI50 [4]: 4.14 µM
TGI [4]: > 100 µM
GI50 [5]: 2.86 µM
TGI [5]: > 100 µM
GI50 [6]: 2.8 µM
TGI [6]: > 100 µM
GI50 [7]: 3.03 µM
TGI [7]: > 100 µM
GI50 [8]: > 100 µM
TGI [8]: > 100 µM

Cc1c2cccc-2ccc2c3ccccc3n(C(=O)c3ccc(Cl)cc3)c12
TGI [9]: > 100 µM
TGI [10]: > 100 µM
TGI [11]: > 100 µM
TGI [12]: > 100 µM
TGI [13]: > 100 µM
TGI [14]: > 100 µM
TGI [15]: > 100 µM
TGI [1]: > 100 µM
TGI [16]: > 100 µM
TGI [17]: > 100 µM
TGI [18]: > 100 µM
TGI [19]: > 100 µM
TGI [20]: > 100 µM
TGI [21]: > 100 µM
TGI [22]: > 100 µM
TGI [23]: > 100 µM
TGI [2]: > 100 µM
TGI [3]: > 100 µM
TGI [24]: > 100 µM
TGI [25]: > 100 µM
TGI [26]: > 100 µM
TGI [27]: > 100 µM
TGI [28]: > 100 µM
TGI [29]: > 100 µM
TGI [30]: > 100 µM
TGI [31]: > 100 µM
TGI [4]: > 100 µM
TGI [32]: > 100 µM
TGI [33]: > 100 µM
TGI [34]: > 100 µM
TGI [35]: > 100 µM
TGI [36]: > 100 µM
TGI [5]: > 100 µM
TGI [37]: > 100 µM
TGI [38]: > 100 µM
TGI [39]: > 100 µM
TGI [40]: > 100 µM
TGI [41]: > 100 µM
TGI [6]: > 100 µM
TGI [42]: > 100 µM
TGI [43]: > 100 µM
TGI [44]: > 100 µM
TGI [45]: > 100 µM
TGI [46]: > 100 µM
TGI [47]: > 100 µM
TGI [7]: > 100 µM
TGI [48]: > 100 µM
TGI [49]: > 100 µM
TGI [50]: > 100 µM
TGI [51]: > 100 µM
TGI [52]: > 100 µM
TGI [53]: > 100 µM
TGI [8]: > 100 µM
TGI [54]: > 100 µM
TGI [55]: > 100 µM
TGI [56]: > 100 µM
